Laboratory results taken from BindingDB's records for doi:10.1016/j.chembiol.2010.01.008 (University of Washington, 2010).
pIC50, pKd: −log10 of the molar value. Several values for one entry are separate records, joined by “and”; a condition that tells them apart may be missing. Identical values can stand only once.

What was measured:
Details in all cases: pH 7.5
[1] = target: Dual specificity protein kinase CLK1 (Homo sapiens, UniProt P49759); assay: In Vitro Activity Assay
Source text: (§1) In vitro activity assay using various kinases.

[2] = target: T1, Ephrin type-A receptor 3 [1-975] (Homo sapiens, UniProt P29320); assay: In Vitro Activity Assay
T1 construct: 1-975
T1 sequence (P29320 whole entry): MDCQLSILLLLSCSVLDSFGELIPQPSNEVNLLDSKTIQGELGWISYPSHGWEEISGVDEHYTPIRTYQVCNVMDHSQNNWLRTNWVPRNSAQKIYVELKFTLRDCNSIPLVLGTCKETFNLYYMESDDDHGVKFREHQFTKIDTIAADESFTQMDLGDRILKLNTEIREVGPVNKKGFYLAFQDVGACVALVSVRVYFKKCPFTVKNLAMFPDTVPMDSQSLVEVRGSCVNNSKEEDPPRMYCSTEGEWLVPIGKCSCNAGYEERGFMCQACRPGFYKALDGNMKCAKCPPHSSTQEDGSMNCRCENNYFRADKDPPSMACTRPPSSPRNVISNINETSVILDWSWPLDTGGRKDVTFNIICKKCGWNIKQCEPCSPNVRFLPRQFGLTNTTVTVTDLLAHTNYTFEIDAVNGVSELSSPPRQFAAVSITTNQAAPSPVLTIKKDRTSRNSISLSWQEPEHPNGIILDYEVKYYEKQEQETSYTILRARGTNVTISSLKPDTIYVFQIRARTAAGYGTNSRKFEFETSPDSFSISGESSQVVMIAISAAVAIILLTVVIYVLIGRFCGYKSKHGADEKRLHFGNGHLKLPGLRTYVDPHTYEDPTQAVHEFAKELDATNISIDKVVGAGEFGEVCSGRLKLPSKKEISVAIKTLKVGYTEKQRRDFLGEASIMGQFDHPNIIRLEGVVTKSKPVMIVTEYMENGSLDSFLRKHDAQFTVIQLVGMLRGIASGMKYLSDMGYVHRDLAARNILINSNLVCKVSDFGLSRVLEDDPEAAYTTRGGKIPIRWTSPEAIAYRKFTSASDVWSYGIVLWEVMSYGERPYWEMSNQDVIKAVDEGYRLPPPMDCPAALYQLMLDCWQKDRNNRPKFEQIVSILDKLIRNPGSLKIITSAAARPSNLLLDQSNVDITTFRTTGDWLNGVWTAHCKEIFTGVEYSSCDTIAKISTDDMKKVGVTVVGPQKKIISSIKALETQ
Source text: as §1

[3] = target: Mitogen-activated protein kinase 14 (Homo sapiens, UniProt Q16539); assay: In Vitro Activity Assay
Source text: as §1

[4] = target: T2, Mitogen-activated protein kinase kinase kinase 5 (Homo sapiens, UniProt Q99683); assay: In Vitro Activity Assay
T2 sequence (Q99683 whole entry): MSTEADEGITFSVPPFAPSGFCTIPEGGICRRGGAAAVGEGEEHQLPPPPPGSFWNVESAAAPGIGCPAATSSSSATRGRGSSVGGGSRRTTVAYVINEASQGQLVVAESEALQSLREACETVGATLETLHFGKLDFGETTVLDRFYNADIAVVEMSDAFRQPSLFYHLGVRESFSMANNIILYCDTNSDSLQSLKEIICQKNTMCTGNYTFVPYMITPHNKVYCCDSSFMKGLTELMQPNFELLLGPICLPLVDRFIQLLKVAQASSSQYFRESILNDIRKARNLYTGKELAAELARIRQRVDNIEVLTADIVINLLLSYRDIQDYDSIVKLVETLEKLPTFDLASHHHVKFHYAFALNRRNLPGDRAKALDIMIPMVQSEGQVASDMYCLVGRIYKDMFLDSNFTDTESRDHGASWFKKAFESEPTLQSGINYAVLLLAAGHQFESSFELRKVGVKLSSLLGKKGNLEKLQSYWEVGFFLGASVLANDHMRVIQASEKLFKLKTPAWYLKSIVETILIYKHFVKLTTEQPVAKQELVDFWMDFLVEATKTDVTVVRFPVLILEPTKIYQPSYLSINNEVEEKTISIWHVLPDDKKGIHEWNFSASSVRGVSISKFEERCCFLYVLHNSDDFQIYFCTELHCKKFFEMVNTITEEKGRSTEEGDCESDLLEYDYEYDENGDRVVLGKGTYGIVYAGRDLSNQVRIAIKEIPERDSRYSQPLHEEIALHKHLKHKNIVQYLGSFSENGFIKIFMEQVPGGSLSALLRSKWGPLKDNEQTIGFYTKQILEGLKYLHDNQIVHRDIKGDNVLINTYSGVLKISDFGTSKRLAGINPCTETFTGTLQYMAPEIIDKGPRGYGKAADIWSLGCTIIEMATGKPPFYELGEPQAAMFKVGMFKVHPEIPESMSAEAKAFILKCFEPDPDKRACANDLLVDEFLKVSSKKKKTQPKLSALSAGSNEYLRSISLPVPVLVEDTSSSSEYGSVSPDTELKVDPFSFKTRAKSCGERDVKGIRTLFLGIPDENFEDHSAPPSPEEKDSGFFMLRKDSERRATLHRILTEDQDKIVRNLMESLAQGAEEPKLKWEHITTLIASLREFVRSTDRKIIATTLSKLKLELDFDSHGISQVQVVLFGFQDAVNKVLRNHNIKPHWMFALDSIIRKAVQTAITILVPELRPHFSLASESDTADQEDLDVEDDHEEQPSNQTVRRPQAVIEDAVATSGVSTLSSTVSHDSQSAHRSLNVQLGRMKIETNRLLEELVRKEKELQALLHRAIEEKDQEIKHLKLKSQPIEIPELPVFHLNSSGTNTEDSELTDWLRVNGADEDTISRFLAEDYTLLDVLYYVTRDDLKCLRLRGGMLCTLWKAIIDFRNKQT
Source text: as §1

[5] = target: Proto-oncogene tyrosine-protein kinase Src (Gallus gallus, UniProt P00523); assay: In Vitro Activity Assay
Source text: as §1

[6] = target: Serine/threonine-protein kinase PAK 4 (Homo sapiens, UniProt O96013); assay: In Vitro Activity Assay
Source text: as §1

[7] = target: Tyrosine-protein kinase ABL1 (Homo sapiens, UniProt P00519); assay: In Vitro Activity Assay
Source text: as §1

[8] = target: T3, Tyrosine-protein kinase ABL1 [1-999,E255V] (Homo sapiens, UniProt P00519, E255V); assay: In Vitro Activity Assay
T3 construct: 1-999
Source text: as §1

[9] = target: T4, Tyrosine-protein kinase ABL1 [1-999,Y253H] (Homo sapiens, UniProt P00519, Y253H); assay: In Vitro Activity Assay
T4 construct: 1-999
Source text: as §1

[10] = target: Tyrosine-protein kinase CSK (Homo sapiens, UniProt P41240); assay: In Vitro Activity Assay
Source text: as §1

[11] = target: Tyrosine-protein kinase HCK (Homo sapiens, UniProt P08631); assay: In Vitro Activity Assay
Source text: as §1

[12] = target: Tyrosine-protein kinase Lck (Homo sapiens, UniProt P06239); assay: In Vitro Activity Assay
Source text: as §1

[13] = target: Serine/threonine-protein kinase PAK 5 (Homo sapiens) (UniProt Q9P286); assay: In vitro activity assay using various kinases.
[14] = target: T5, Interleukin-1 receptor-associated kinase 4 (Homo sapiens, UniProt Q9NWZ3); assay: In Vitro Activity Assay
T5 sequence (Q9NWZ3 whole entry): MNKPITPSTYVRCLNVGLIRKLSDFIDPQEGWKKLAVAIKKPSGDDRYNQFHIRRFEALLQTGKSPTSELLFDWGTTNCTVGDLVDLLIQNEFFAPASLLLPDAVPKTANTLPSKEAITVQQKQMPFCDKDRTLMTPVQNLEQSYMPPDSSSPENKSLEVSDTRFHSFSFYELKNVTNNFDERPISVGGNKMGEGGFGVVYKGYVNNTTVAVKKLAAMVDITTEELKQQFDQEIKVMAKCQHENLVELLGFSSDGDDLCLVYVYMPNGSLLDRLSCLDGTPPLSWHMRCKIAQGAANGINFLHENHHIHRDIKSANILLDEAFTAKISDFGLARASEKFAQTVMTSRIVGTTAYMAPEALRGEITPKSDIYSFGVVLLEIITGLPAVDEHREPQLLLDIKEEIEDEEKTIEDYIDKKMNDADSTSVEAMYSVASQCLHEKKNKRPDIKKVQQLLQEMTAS
Source text: as §1

[15] = target: Mitogen-activated protein kinase 1 (Homo sapiens, UniProt P28482); assay: In Vitro Activity Assay
Source text: as §1

[16] = target: cAMP-dependent protein kinase catalytic subunit alpha (Homo sapiens, UniProt P17612); assay: In Vitro Activity Assay
Source text: as §1

Sequence of Tyrosine-protein kinase HCK (P08631 whole entry): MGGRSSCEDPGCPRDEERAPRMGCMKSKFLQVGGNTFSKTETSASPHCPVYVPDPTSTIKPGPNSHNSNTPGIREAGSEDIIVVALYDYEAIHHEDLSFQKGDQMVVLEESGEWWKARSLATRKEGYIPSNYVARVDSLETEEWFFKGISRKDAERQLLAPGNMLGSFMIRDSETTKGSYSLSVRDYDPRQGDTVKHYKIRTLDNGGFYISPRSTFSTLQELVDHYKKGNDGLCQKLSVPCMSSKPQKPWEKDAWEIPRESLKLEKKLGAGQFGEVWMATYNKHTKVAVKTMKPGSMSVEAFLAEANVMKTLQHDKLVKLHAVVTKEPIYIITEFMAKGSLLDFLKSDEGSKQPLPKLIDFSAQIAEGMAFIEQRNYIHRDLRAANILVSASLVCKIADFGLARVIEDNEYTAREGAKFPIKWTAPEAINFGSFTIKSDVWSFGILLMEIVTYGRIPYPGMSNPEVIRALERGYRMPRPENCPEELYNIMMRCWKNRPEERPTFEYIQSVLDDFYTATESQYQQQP
Sequence of Serine/threonine-protein kinase PAK 4 (O96013 whole entry): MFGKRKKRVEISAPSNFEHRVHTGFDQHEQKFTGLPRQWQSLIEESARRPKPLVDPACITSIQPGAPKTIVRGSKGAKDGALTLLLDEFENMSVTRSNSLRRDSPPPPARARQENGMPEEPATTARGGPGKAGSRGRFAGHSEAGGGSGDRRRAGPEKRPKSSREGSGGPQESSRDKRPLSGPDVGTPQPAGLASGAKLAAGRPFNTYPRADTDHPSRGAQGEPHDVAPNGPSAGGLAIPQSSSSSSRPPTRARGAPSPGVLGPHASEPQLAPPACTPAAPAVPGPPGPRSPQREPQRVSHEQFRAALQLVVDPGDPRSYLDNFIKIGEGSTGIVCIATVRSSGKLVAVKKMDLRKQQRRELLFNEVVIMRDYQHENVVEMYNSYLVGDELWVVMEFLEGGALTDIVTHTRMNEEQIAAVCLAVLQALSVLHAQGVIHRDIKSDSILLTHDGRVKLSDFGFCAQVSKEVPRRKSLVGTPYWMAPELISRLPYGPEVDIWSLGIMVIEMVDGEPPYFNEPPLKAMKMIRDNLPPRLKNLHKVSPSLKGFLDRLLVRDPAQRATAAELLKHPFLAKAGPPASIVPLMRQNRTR
Sequence of Mitogen-activated protein kinase 14 (Q16539 whole entry): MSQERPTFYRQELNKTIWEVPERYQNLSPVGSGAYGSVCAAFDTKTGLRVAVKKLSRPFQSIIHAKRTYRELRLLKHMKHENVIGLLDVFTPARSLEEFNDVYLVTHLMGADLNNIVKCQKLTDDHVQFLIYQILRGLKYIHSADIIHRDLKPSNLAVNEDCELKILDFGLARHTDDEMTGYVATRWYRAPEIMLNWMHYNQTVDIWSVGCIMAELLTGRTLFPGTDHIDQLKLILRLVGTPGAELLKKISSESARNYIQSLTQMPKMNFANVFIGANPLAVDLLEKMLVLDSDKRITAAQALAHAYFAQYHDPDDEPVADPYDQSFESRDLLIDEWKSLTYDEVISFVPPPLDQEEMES
Sequence of Tyrosine-protein kinase ABL1 (P00519 whole entry): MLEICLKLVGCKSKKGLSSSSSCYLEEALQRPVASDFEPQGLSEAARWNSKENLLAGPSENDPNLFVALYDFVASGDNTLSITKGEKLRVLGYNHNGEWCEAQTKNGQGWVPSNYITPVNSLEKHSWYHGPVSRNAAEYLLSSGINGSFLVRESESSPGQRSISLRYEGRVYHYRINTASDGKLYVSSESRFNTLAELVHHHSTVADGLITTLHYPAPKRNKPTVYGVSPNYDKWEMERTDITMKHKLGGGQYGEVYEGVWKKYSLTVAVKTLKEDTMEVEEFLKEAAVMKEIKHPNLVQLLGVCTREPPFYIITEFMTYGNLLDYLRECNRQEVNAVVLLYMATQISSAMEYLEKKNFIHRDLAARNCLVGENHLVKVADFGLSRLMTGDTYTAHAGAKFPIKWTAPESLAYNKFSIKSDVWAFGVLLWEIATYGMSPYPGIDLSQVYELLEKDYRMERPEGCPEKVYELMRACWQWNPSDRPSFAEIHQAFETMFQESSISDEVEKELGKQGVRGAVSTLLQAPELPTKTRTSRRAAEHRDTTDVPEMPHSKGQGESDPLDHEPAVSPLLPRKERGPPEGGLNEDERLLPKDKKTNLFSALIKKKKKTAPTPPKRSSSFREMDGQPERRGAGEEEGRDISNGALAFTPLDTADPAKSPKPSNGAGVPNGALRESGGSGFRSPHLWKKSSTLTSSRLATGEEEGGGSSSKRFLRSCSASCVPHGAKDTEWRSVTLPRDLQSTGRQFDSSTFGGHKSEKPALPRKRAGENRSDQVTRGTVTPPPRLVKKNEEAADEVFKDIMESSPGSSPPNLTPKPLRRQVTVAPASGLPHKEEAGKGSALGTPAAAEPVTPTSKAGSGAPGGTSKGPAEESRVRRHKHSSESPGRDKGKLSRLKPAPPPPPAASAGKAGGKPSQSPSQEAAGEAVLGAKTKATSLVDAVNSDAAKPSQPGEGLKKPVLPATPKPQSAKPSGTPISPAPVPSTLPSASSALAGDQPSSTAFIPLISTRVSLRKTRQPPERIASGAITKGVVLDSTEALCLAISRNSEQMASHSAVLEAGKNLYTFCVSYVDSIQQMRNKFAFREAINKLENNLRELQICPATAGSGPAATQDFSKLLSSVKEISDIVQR
Sequence of Dual specificity protein kinase CLK1 (P49759 whole entry): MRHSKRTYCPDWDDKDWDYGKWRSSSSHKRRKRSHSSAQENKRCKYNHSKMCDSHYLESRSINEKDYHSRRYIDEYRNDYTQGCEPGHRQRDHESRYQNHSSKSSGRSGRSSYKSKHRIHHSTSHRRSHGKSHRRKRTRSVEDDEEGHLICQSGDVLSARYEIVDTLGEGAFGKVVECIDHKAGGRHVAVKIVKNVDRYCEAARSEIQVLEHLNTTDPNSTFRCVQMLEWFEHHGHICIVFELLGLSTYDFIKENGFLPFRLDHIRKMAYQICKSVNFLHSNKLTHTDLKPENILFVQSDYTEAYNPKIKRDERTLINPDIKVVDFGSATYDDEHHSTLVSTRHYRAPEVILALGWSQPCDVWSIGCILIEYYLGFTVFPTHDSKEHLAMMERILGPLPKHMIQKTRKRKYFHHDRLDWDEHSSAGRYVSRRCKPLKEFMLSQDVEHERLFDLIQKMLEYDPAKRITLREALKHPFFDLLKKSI
Sequence of Tyrosine-protein kinase Lck (P06239 whole entry): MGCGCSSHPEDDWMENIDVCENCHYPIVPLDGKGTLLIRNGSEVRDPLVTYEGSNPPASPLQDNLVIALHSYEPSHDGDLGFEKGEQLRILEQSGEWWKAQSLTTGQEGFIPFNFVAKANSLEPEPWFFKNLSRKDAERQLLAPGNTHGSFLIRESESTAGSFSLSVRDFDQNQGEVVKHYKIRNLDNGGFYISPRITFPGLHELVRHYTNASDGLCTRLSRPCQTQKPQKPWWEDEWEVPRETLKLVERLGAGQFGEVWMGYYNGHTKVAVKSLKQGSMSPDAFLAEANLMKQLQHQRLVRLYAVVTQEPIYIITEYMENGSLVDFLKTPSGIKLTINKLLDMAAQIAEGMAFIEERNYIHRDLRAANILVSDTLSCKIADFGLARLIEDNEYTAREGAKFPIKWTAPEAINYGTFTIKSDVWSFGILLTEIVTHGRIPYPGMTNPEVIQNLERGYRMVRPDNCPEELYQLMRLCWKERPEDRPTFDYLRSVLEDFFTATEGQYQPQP
Sequence of Serine/threonine-protein kinase PAK 5 (Homo sapiens) (Q9P286 whole entry, looked up): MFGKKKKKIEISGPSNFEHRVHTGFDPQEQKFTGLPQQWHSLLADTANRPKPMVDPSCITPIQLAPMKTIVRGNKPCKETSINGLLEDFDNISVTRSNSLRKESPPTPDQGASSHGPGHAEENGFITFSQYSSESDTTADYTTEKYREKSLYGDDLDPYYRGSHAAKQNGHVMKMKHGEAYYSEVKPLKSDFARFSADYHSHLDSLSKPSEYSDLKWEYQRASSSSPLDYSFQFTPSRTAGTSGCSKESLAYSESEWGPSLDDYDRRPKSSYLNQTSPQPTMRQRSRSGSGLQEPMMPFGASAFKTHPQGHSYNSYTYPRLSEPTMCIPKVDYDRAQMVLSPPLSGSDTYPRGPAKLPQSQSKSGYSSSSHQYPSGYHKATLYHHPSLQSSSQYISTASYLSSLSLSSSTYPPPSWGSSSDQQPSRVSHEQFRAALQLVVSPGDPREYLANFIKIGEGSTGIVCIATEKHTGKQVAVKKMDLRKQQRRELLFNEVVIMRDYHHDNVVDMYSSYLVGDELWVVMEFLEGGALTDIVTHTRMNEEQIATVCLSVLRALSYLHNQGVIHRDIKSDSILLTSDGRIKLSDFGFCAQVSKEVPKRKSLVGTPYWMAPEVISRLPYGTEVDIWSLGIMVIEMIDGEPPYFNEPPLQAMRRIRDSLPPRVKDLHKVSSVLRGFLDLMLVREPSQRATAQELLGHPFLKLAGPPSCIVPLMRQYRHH
Sequence of Mitogen-activated protein kinase 1 (P28482 whole entry): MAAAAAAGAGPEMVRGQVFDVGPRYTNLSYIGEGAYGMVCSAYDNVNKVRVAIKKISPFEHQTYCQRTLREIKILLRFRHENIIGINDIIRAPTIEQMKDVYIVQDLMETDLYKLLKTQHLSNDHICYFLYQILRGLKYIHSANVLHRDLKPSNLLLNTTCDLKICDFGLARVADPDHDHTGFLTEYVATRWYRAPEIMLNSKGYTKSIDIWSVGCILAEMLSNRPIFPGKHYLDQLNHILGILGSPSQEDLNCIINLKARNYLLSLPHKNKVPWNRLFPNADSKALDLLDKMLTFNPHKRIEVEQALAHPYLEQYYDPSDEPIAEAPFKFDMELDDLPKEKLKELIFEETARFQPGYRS

pIC50 [3]	pIC50 [5]	pIC50 [1]	pIC50 [14]	pIC50 [15]	pIC50 [4]	pIC50 [6]	pIC50 [7]	pIC50 [10]	pIC50 [11]	pIC50 [12]	pIC50 [16]	pIC50 [13]	Compound	other results
7.59	7.60	–	–	–	–	–	–	–	–	–	–	–	Cc1ccc(NC(=O)c2cccc(C(F)(F)F)c2)cc1Nc1ncccc1-c1ncnc(Nc2ccc(OCCNC(=O)CCCCNC(=O)CCC3=[N+]4B(F)n5c(C)cc(C)c5C=C4C=C3)cc2)n1 [BODIPY-labeled probe, 4a]	pKd [1]: < 6.00; pKd [2]: 7.57; pKd [3]: 7.46; pKd [4]: < 6.00; pKd [5]: 7.89 and 7.96; pKd [6]: < 6.00; pKd [7]: 8.00; pKd [8]: 7.35; pKd [9]: 8.03; pKd [10]: 7.77; pKd [11]: 8.06; pKd [12]: 7.70; pKd [13]: < 6.00
> 7.89	8.24	< 5.00	< 5.00	< 5.00	< 5.00	< 5.00	8.18	6.85	8.20	> 8.00	< 5.00	< 5.00	Cc1ccc(NC(=O)c2cccc(C(F)(F)F)c2)cc1Nc1ncccc1-c1cc(Nc2ccc(OCCNC(=O)COCCOCCOCCOCCN)cc2)ncn1 [Amine compound, 13a]	–
> 7.89	8.48	< 5.00	< 5.00	< 5.00	< 5.00	< 5.00	8.18	7.79	8.02	> 8.00	< 5.00	< 5.00	Cc1ccc(NC(=O)c2cccc(C(F)(F)F)c2)cc1Nc1ncccc1-c1ncnc(Nc2ccc(OCCNC(=O)COCCOCCOCCOCCN)cc2)n1 [Amine compound, 12a]	–
